± gives the standard deviation of the averaged measurements.
Assays:
Experiment in all cases: relative viability vs DMSO control (72 h) (fraction); higher = more viable cells
SYO-1 = test system: SYO-1
Outline: (§1)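 Relative viability is percent growth read by ATPLite and averaged over up to triplicate wells. Sarcoma cells were seeded in 384-well plates to reach 80–90% confluence and given 2.5 µl of serially diluted compound after 24 h, from source plates of 10 mM to 0.0002 mM. Incubation lasted 72 h at 37 °C, 5% CO2, with 0.1% DMSO vehicle and a 5 µM positive control, and the data were rescaled so 1 equals full and 0 equals none.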

RD = test system: RD
Outline: as §1

SW684 = test system: SW684
Outline: as §1

SW872 = test system: SW872
Outline: as §1

HS729 = test system: HS729
Outline: as §1

SW1353 = test system: SW1353
Outline: as §1

KHOS-NP = test system: KHOS-NP
Outline: as §1

G401 = test system: G401
Outline: as §1

HT1080 = test system: HT1080
Outline: as §1

RD-ES = test system: RD-ES
Outline: as §1

SK-LMS-1 = test system: SK-LMS-1
Outline: as §1

KHOS-240S = test system: KHOS-240S
Outline: as §1

Cc1cc2c(F)c(Oc3ncnn4cc(OC[C@@H](C)OC(=O)[C@H](C)N)c(C)c34)ccc2[nH]1 [Brivanib_alaninate]
relative viability (SYO-1; 0.00017 µM): 0.934 ± 0.024
relative viability (SYO-1; 0.00051 µM): 0.937 ± 0.028
relative viability (SYO-1; 0.00152 µM): 0.94 ± 0.023
relative viability (SYO-1; 0.00457 µM): 0.927 ± 0.034
relative viability (SYO-1; 0.01372 µM): 0.9194 ± 0.0059
relative viability (SYO-1; 0.04115 µM): 0.914 ± 0.024
relative viability (SYO-1; 0.1235 µM): 0.906 ± 0.034
relative viability (SYO-1; 0.3704 µM): 0.903 ± 0.043
relative viability (SYO-1; 1.111 µM): 0.846 ± 0.032
relative viability (SYO-1; 3.333 µM): 0.673 ± 0.053
relative viability (SYO-1; 10 µM): 0.586 ± 0.015
relative viability (RD; 0.00017 µM): 1.07 ± 0.019
relative viability (RD; 0.00051 µM): 1.07 ± 0.029
relative viability (RD; 0.00152 µM): 1.1 ± 0.039
relative viability (RD; 0.00457 µM): 1.09 ± 0.052
relative viability (RD; 0.01372 µM): 1.1 ± 0.044
relative viability (RD; 0.04115 µM): 1.08 ± 0.013
relative viability (RD; 0.1235 µM): 1.09 ± 0.031
relative viability (RD; 0.3704 µM): 1.1 ± 0.05
relative viability (RD; 1.111 µM): 1.12 ± 0.051
relative viability (RD; 3.333 µM): 1.04 ± 0.071
relative viability (RD; 10 µM): 0.874 ± 0.058
relative viability (SW684; 0.00017 µM): 1.15 ± 0.01
relative viability (SW684; 0.00051 µM): 1.15 ± 0.013
relative viability (SW684; 0.00152 µM): 1.17 ± 0.028
relative viability (SW684; 0.00457 µM): 1.14 ± 0.033
relative viability (SW684; 0.01372 µM): 1.08 ± 0.021
relative viability (SW684; 0.04115 µM): 1.07 ± 0.02
relative viability (SW684; 0.1235 µM): 1.09 ± 0.027
relative viability (SW684; 0.3704 µM): 1.17 ± 0.02
relative viability (SW684; 1.111 µM): 1.141 ± 0.0023
relative viability (SW684; 3.333 µM): 1.13 ± 0.025
relative viability (SW684; 10 µM): 1.19 ± 0.072
relative viability (SW872; 0.00017 µM): 0.98 ± 0.023
relative viability (SW872; 0.00051 µM): 0.967 ± 0.034
relative viability (SW872; 0.00152 µM): 0.991 ± 0.033
relative viability (SW872; 0.00457 µM): 0.988 ± 0.048
relative viability (SW872; 0.01372 µM): 0.968 ± 0.048
relative viability (SW872; 0.04115 µM): 0.973 ± 0.041
relative viability (SW872; 0.1235 µM): 0.986 ± 0.05
relative viability (SW872; 0.3704 µM): 1.02 ± 0.044
relative viability (SW872; 1.111 µM): 1.04 ± 0.012
relative viability (SW872; 3.333 µM): 1.05 ± 0.031
relative viability (SW872; 10 µM): 1.03 ± 0.017
relative viability (HS729; 0.00017 µM): 0.943 ± 0.044
relative viability (HS729; 0.00051 µM): 0.893 ± 0.075
relative viability (HS729; 0.00152 µM): 0.914 ± 0.047
relative viability (HS729; 0.00457 µM): 0.878 ± 0.071
relative viability (HS729; 0.01372 µM): 0.9 ± 0.068
relative viability (HS729; 0.04115 µM): 0.897 ± 0.074
relative viability (HS729; 0.1235 µM): 0.877 ± 0.068
relative viability (HS729; 0.3704 µM): 0.898 ± 0.053
relative viability (HS729; 1.111 µM): 0.923 ± 0.022
relative viability (HS729; 3.333 µM): 0.891 ± 0.064
relative viability (HS729; 10 µM): 0.782 ± 0.066
relative viability (SW1353; 0.00017 µM): 0.949 ± 0.022
relative viability (SW1353; 0.00051 µM): 0.952 ± 0.033
relative viability (SW1353; 0.00152 µM): 0.999 ± 0.021
relative viability (SW1353; 0.00457 µM): 0.928 ± 0.059
relative viability (SW1353; 0.01372 µM): 0.97 ± 0.046
relative viability (SW1353; 0.04115 µM): 0.963 ± 0.028
relative viability (SW1353; 0.1235 µM): 0.94 ± 0.042
relative viability (SW1353; 0.3704 µM): 0.958 ± 0.013
relative viability (SW1353; 1.111 µM): 0.97 ± 0.015
relative viability (SW1353; 3.333 µM): 0.984 ± 0.031
relative viability (SW1353; 10 µM): 0.977 ± 0.022
relative viability (KHOS-NP; 0.00017 µM): 1.04 ± 0.032
relative viability (KHOS-NP; 0.00051 µM): 1.05 ± 0.017
relative viability (KHOS-NP; 0.00152 µM): 1.05 ± 0.022
relative viability (KHOS-NP; 0.00457 µM): 1.06 ± 0.025
relative viability (KHOS-NP; 0.01372 µM): 1.059 ± 0.0083
relative viability (KHOS-NP; 0.04115 µM): 1.07 ± 0.024
relative viability (KHOS-NP; 0.1235 µM): 1.03 ± 0.029
relative viability (KHOS-NP; 0.3704 µM): 1.03 ± 0.02
relative viability (KHOS-NP; 1.111 µM): 1.02 ± 0.015
relative viability (KHOS-NP; 3.333 µM): 0.917 ± 0.067
relative viability (KHOS-NP; 10 µM): 0.6654 ± 0.0056
relative viability (G401; 0.00017 µM): 0.968 ± 0.025
relative viability (G401; 0.00051 µM): 0.967 ± 0.047
relative viability (G401; 0.00152 µM): 1 ± 0.026
relative viability (G401; 0.00457 µM): 1.01 ± 0.019
relative viability (G401; 0.01372 µM): 0.974 ± 0.01
relative viability (G401; 0.04115 µM): 0.995 ± 0.015
relative viability (G401; 0.1235 µM): 0.982 ± 0.011
relative viability (G401; 0.3704 µM): 0.976 ± 0.07
relative viability (G401; 1.111 µM): 1 ± 0.013
relative viability (G401; 3.333 µM): 0.953 ± 0.0097
relative viability (G401; 10 µM): 0.8674 ± 0.0042
relative viability (HT1080; 0.00017 µM): 1.05 ± 0.011
relative viability (HT1080; 0.00051 µM): 1.04 ± 0.016
relative viability (HT1080; 0.00152 µM): 1.06 ± 0.028
relative viability (HT1080; 0.00457 µM): 1.03 ± 0.013
relative viability (HT1080; 0.01372 µM): 1.04 ± 0.013
relative viability (HT1080; 0.04115 µM): 1.03 ± 0.032
relative viability (HT1080; 0.1235 µM): 1.04 ± 0.032
relative viability (HT1080; 0.3704 µM): 1.054 ± 0.0074
relative viability (HT1080; 1.111 µM): 1.047 ± 0.0084
relative viability (HT1080; 3.333 µM): 0.99 ± 0.018
relative viability (HT1080; 10 µM): 0.978 ± 0.0099
relative viability (RD-ES; 0.00017 µM): 0.953 ± 0.022
relative viability (RD-ES; 0.00051 µM): 0.9804 ± 0.0097
relative viability (RD-ES; 0.00152 µM): 0.983 ± 0.025
relative viability (RD-ES; 0.00457 µM): 0.983 ± 0.018
relative viability (RD-ES; 0.01372 µM): 0.996 ± 0.014
relative viability (RD-ES; 0.04115 µM): 0.989 ± 0.023
relative viability (RD-ES; 0.1235 µM): 0.962 ± 0.021
relative viability (RD-ES; 0.3704 µM): 1 ± 0.048
relative viability (RD-ES; 1.111 µM): 0.987 ± 0.056
relative viability (RD-ES; 3.333 µM): 0.9601 ± 0.0059
relative viability (RD-ES; 10 µM): 0.926 ± 0.068
relative viability (SK-LMS-1; 0.00017 µM): 0.967 ± 0.088
relative viability (SK-LMS-1; 0.00051 µM): 0.995 ± 0.055
relative viability (SK-LMS-1; 0.00152 µM): 0.978 ± 0.048
relative viability (SK-LMS-1; 0.00457 µM): 1.01 ± 0.067
relative viability (SK-LMS-1; 0.01372 µM): 1.01 ± 0.035
relative viability (SK-LMS-1; 0.04115 µM): 0.987 ± 0.042
relative viability (SK-LMS-1; 0.1235 µM): 0.989 ± 0.041
relative viability (SK-LMS-1; 0.3704 µM): 0.998 ± 0.044
relative viability (SK-LMS-1; 1.111 µM): 1 ± 0.02
relative viability (SK-LMS-1; 3.333 µM): 0.606 ± 0.0097
relative viability (SK-LMS-1; 10 µM): 0.512 ± 0.014
relative viability (KHOS-240S; 0.00017 µM): 1.016 ± 0.01
relative viability (KHOS-240S; 0.00051 µM): 1.04 ± 0.027
relative viability (KHOS-240S; 0.00152 µM): 1.03 ± 0.013
relative viability (KHOS-240S; 0.00457 µM): 1.04 ± 0.033
relative viability (KHOS-240S; 0.01372 µM): 1.052 ± 0.009
relative viability (KHOS-240S; 0.04115 µM): 1.03 ± 0.013
relative viability (KHOS-240S; 0.1235 µM): 1.03 ± 0.018
relative viability (KHOS-240S; 0.3704 µM): 1.04 ± 0.014
relative viability (KHOS-240S; 1.111 µM): 1.007 ± 0.0074
relative viability (KHOS-240S; 3.333 µM): 0.93 ± 0.029
relative viability (KHOS-240S; 10 µM): 0.738 ± 0.019
